Experimental data: US4975455A, “New heteroarotinoid compounds” (Adir et Cie, priority 1988, dated 1990)
Read-outs that look alike come from different tables or passages of the source.

Experiments:
[1] = tested on: L1210 line (mouse leukemic line); assay: Inhibition of growth of L1210 line (tritiated thymidine incorporation, 48 hours); type: cell-based; settings: L1210 cells, read-out: IC50 (50% growth inhibition)
Experimental: The growth of this mouse leukemic line is assessed by the capacity of the cells to incorporate tritiated thymidine. The degree of incorporation is measured 48 hours after the introduction of the test compounds into the culture medium.

humeri of rat fetuses = assay: Toxicity on the humeri of rat fetuses explanted in vitro (proteoglycan release); type: cell-based; settings: 7 days of culture in vitro, in words
Experimental: EXAMPLE 37: STUDY OF THE TOXICITY ON THE HUMERI OF RAT FETUSES OF GESTATIONAL AGE 21 DAYS
The toxicity of retinoids can be evaluated on humeri of rat fetuses of gestational age 21 days.
The toxicity of retinoids can be evaluated on humeri of rat fetuses explanted in vitro as described by KISTLER.
Retinoid activity results in a release of proteoglycans from the bony substance. This release is assessed after 7 days of culture in vitro by assaying the concentration of proteoglycans in the medium, by the method of WITHEMAN (1973).

[2] = in vivo
Excerpt: (§1) This can be reproduced experimentally in animals.
(§2) The selected treatment protocol is a daily injection for five days, repeated a second time after an interval of two days.

[3] = Detection of an excess-vitamin A type toxicity in vivo
Excerpt: as §1, §2

[4] = daily injection for five days, repeated after two days interval

Compound | IC50 [1] | also measured
COC(=O)c1ccc(/C=C(\C)C2=Cc3ccccc3OC2)cc1 [Example 6, methyl 4-[2-(2H-chromen-3-yl)propenyl]benzoate] | 25 µM | 
CCS(=O)(=O)c1ccc(/C=C(\C)C2=Cc3cc(OC)ccc3OC2)cc1 [Example 24, ethyl 4-[2-(6-methoxy-2H-chromen-3-yl)propenyl]phenyl sulfone] | 8 µM | 
COC(=O)c1ccc(/C=C(\C)C2=Cc3cc(Cl)cc(Cl)c3OC2)cc1 [Example 8] | 25 µM | toxicity on the humeri (humeri of rat fetuses): complete absence of toxicity
CC1=C(/C=C/C(C)=C/C=C/C(C)=C/C(=O)O)C(C)(C)CCC1 [retinoic acid] |  | alopecia [2]: appearance of alopecia; weight [2]: rapid weight loss
CCS(=O)(=O)c1ccc(C=C(C)C2=Cc3cc(C)cc(C)c3OC2)cc1 [Example 18] | 6 µM | 
CC(=Cc1ccccc1)C1=Cc2ccccc2OC1 [Example 1, 3-(1-PHENYLPROPEN-2-YL)-2H-CHROMENE] | < 1 µM | 
CC(=Cc1ccccc1)C1=Cc2cc(Cl)cc(C)c2OC1 [Example 3] | 20 µM | 
CCOC(=O)/C=C(C)/C=C/C=C(C)/C=C/c1c(C)cc(OC)c(C)c1C [Etretinate, etretinate] | 80 µM | alopecia [3, 4]: appearance of alopecia; fracture / bone weakening (radiography) [3, 4]: bone weakening; weight [3, 4]: rapid weight loss; excess-vitamin A type toxicity ([3]; overall, in words): rapid weight loss, alopecia and bone weakening
CCOC(=O)c1ccc(/C=C(\C)C2=Cc3ccccc3OC2)cc1 [Example 10, ethyl 4-[2-(2H-chromen-3-yl)propenyl]benzoate] | 18 µM | 
CCS(=O)(=O)c1ccc(/C=C(\C)C2=Cc3ccccc3OC2)cc1 [Example 16, ethyl 4-[2-(2H-chromen-3-yl)propenyl]phenyl sulfone] | 3.8 µM | 
CCS(=O)(=O)c1ccc(C=C(C)C2=Cc3cc(Cl)cc(C)c3OC2)cc1 [Example 17] | 7.5 µM | 
CCNC(=O)c1ccc(/C=C(\C)C2=Cc3ccccc3OC2)cc1 [Example 13, N-ethyl-4-[2-(2H-chromen-3-yl)propenyl]benzamide] | 3.8 µM | 
